The values below come from ChEMBL document CHEMBL1201862, “PubChem BioAssay data set” (2004).

The source made the active and inactive calls.

Format in all cases: functional
The target in one assay is T1, Protein RecA (Mycobacterium tuberculosis, UniProt P9WHJ3).
T1 sequence (P9WHJ3 whole entry): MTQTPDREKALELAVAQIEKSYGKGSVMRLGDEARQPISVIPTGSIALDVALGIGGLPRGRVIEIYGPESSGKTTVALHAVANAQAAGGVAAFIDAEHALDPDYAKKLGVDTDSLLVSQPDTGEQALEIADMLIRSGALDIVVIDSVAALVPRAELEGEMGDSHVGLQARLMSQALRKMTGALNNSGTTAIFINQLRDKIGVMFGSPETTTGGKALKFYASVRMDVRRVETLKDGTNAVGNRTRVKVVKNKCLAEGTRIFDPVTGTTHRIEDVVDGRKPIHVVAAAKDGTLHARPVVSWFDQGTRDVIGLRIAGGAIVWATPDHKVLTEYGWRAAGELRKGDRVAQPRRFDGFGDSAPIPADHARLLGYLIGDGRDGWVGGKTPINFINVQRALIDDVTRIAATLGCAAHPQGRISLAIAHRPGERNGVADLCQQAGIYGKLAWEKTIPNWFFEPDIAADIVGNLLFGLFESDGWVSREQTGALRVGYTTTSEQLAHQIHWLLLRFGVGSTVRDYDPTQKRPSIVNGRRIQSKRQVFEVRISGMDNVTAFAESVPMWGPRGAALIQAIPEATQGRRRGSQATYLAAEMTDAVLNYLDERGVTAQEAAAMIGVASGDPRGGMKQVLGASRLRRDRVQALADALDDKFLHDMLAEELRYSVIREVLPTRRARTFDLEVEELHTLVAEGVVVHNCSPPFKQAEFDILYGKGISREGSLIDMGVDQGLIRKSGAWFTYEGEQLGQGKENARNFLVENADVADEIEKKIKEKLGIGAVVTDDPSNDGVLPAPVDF
The assay is described as follows: Fluorescence Cell-Free Homogeneous Dose Retest to Identify Inhibitors of RecA-Intein Splicing Activity. [Related pubchem assays (depositor defined):AID2097, AID2223, AID489010, AID492950].

Assay [1] addresses Dual specificity mitogen-activated protein kinase kinase 1 (Homo sapiens, UniProt Q02750). Description: Navigating the Kinome. Panel member name: MAP2K1.
Assay [2] addresses RAC-gamma serine/threonine-protein kinase (Homo sapiens, UniProt Q9Y243).
Assay [3] deals with T2, Serine/threonine-protein kinase D3 (Homo sapiens, UniProt O94806).
T2 sequence (O94806 whole entry): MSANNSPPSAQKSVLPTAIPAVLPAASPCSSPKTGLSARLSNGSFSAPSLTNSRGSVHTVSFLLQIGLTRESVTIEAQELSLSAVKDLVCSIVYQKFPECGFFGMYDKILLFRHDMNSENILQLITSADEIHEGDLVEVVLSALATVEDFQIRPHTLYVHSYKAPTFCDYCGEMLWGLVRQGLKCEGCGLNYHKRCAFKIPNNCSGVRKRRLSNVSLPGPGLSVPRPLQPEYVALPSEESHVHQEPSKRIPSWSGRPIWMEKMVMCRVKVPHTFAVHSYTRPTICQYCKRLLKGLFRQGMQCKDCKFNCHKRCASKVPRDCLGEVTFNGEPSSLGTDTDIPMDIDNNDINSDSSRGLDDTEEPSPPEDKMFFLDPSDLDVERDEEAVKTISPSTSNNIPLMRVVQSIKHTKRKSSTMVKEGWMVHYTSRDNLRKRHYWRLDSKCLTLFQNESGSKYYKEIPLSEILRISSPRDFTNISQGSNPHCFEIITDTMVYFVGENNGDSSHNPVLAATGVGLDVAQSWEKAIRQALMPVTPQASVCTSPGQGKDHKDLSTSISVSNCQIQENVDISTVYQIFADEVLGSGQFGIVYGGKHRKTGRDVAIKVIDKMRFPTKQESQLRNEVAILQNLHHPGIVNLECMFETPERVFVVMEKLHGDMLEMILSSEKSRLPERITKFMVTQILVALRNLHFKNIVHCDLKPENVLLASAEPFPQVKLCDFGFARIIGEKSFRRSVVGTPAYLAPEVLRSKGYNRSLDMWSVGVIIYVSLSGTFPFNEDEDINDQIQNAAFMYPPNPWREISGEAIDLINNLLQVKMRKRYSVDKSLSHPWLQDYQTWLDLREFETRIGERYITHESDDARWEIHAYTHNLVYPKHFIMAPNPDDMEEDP

Assay [4] deals with Death-associated protein kinase 3 (Homo sapiens, UniProt O43293).
Death-associated protein kinase 3, sequence (O43293 whole entry): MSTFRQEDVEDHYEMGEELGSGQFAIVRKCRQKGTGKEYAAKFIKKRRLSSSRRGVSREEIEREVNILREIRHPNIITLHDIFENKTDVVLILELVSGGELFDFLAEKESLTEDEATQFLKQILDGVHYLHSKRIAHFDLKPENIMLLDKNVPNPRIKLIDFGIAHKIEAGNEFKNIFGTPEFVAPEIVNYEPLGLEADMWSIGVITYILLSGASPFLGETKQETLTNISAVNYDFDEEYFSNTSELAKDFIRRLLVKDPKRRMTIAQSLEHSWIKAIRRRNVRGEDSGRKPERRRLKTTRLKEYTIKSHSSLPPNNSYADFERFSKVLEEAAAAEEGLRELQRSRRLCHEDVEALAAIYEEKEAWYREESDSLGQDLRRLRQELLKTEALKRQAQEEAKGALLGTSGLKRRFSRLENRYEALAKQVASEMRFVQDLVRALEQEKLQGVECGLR
The target of assay [5] is Serine/threonine-protein kinase pim-1 (Homo sapiens, UniProt P11309).
Serine/threonine-protein kinase pim-1, sequence (P11309 whole entry): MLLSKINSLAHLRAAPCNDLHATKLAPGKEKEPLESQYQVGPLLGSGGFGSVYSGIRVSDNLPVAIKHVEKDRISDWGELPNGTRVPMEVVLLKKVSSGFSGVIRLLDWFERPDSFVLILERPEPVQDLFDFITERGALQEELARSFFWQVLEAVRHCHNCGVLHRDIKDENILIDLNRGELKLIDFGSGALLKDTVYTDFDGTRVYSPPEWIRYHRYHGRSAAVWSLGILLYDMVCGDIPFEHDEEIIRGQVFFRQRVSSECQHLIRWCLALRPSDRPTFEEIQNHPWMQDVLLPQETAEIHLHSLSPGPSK
Assay [6] has as its target Fibroblast growth factor receptor 1 (Homo sapiens, UniProt P11362).
For assay [7], the target named is Casein kinase I isoform alpha (Homo sapiens, UniProt P48729).
Casein kinase I isoform alpha, sequence (P48729 whole entry, canonical isoform): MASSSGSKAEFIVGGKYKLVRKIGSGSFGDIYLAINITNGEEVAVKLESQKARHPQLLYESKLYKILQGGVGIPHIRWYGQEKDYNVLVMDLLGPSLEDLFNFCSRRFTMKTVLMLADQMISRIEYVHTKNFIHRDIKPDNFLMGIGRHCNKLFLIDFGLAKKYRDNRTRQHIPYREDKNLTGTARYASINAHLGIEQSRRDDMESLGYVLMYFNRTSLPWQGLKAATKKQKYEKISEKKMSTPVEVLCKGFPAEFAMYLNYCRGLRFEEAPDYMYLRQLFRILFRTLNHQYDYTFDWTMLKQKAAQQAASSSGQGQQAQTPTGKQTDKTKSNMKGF
The target in assay [8] is Serine/threonine-protein kinase pim-3 (Homo sapiens, UniProt Q86V86).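 Further: value obtained as one member of a broad kinase panel profiling effort.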
Assay [9] deals with T3, Serine/threonine-protein kinase Chk1 (Homo sapiens, UniProt O14757).
T3 sequence (O14757 whole entry): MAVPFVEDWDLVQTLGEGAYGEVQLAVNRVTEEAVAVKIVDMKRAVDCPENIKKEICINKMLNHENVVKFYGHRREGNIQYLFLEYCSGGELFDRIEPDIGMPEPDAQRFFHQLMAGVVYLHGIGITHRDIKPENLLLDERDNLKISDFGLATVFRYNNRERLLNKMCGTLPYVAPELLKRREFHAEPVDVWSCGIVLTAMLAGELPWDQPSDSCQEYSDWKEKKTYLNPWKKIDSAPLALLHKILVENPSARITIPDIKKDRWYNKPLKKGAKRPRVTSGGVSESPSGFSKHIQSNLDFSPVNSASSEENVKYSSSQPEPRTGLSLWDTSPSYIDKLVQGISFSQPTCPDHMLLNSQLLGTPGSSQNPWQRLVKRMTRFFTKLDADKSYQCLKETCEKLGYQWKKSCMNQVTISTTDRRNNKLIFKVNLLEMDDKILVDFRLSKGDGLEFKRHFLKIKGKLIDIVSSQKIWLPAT

The target of assay [10] is Dual specificity tyrosine-phosphorylation-regulated kinase 1B (Homo sapiens, UniProt Q9Y463). The assay is described as follows: Navigating the Kinome. Panel member name: DYRK1B.
Dual specificity tyrosine-phosphorylation-regulated kinase 1B, sequence (Q9Y463 whole entry): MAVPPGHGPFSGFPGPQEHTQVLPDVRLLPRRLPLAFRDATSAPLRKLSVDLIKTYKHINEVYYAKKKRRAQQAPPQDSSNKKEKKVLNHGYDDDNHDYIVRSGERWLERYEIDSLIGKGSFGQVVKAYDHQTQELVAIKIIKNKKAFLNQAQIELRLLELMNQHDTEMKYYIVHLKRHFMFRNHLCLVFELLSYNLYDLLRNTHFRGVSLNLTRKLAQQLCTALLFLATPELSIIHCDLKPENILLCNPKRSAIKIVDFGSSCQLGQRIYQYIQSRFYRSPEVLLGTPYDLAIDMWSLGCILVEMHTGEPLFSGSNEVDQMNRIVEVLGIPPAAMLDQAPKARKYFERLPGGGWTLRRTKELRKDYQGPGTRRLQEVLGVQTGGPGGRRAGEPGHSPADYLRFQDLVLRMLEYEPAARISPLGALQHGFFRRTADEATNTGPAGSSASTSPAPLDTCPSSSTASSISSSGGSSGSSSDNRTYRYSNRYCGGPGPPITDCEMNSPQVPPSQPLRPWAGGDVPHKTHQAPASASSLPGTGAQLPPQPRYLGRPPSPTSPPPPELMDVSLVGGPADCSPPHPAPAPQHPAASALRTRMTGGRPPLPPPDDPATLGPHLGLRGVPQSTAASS
Assay [11] concerns the target RAC-alpha serine/threonine-protein kinase (Homo sapiens, UniProt P31749).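 Further: AKT1 affinity measured as one member of a kinome-wide kinase profiling panel.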
Assay [12] deals with cAMP-dependent protein kinase catalytic subunit alpha (Homo sapiens, UniProt P17612).
The target in assay [13] is Dual specificity protein kinase CLK4 (Homo sapiens, UniProt Q9HAZ1).
Dual specificity protein kinase CLK4, sequence (Q9HAZ1 whole entry): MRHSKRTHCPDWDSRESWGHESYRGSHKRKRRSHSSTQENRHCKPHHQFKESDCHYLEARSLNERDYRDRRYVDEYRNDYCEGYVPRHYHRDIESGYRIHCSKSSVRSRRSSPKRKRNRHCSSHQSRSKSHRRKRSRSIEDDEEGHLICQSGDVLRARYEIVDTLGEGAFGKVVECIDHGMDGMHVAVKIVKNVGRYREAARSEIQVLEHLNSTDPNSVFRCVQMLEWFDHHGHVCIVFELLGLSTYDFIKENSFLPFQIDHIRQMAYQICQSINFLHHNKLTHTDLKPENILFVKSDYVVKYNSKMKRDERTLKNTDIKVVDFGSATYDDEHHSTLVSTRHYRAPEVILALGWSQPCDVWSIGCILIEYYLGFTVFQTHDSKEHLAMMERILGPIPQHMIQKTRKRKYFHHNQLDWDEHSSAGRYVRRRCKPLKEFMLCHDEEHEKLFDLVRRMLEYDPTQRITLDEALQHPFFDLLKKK

RAC-gamma serine/threonine-protein kinase, sequence (Q9Y243 whole entry): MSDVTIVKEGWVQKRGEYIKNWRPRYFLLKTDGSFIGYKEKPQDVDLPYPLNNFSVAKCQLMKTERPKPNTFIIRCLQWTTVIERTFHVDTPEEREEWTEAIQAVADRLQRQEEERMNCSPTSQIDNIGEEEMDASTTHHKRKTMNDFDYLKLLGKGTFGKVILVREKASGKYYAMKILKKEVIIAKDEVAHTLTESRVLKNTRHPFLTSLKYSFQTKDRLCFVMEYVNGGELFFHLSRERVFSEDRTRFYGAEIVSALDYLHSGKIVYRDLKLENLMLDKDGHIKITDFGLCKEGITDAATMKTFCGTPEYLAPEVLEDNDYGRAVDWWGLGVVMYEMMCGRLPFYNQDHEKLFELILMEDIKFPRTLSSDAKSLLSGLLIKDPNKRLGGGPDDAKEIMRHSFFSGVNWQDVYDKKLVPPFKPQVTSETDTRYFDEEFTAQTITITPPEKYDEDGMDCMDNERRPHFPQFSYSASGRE
Fibroblast growth factor receptor 1, sequence (P11362 whole entry, canonical isoform): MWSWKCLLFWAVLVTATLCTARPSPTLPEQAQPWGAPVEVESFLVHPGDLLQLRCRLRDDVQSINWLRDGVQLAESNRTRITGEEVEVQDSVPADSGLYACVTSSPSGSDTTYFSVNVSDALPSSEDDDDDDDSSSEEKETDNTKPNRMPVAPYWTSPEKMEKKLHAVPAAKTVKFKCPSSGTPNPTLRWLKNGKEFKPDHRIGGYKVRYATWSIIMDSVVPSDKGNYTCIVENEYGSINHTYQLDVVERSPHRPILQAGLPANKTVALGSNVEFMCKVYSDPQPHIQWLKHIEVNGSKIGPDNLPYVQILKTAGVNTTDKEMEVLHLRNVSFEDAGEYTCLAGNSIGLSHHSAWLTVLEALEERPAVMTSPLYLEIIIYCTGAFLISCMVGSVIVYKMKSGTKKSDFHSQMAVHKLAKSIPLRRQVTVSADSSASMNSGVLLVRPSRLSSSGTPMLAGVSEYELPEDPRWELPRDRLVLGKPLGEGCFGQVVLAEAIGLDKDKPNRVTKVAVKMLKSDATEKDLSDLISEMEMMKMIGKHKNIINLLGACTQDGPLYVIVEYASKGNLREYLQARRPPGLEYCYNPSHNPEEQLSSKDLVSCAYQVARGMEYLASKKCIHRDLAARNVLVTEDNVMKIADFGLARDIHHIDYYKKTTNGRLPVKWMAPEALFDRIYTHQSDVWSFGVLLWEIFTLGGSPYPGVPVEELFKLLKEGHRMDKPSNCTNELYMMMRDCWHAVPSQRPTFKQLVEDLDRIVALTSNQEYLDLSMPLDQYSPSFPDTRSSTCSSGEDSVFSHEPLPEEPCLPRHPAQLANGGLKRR
Dual specificity mitogen-activated protein kinase kinase 1, sequence (Q02750 whole entry): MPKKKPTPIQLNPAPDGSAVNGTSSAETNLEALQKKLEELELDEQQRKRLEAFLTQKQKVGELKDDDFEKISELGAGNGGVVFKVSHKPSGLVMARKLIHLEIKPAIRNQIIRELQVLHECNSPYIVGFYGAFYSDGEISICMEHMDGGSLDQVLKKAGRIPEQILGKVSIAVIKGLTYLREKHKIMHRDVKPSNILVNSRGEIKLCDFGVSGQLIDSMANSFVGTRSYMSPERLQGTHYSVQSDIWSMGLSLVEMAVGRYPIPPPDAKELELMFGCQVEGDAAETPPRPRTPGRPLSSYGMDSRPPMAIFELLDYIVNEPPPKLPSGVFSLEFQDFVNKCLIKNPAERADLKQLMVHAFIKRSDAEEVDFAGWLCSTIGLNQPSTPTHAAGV
RAC-alpha serine/threonine-protein kinase, sequence (P31749 whole entry): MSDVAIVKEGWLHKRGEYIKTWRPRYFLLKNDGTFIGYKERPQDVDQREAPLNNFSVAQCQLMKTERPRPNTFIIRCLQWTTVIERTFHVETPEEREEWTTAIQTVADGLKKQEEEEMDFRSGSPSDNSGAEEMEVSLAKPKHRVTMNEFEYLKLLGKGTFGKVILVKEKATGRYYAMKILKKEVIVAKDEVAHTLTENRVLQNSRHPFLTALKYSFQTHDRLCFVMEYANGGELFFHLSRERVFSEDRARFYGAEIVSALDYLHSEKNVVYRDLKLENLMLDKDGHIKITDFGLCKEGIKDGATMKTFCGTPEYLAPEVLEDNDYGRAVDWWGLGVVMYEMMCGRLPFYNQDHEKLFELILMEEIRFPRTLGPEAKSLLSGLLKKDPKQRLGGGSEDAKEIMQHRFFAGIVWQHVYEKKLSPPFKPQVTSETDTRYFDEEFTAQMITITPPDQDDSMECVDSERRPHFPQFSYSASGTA

As for `COC(=O)CCS(=O)(=O)c1nc(-c2ccccc2)cc(C(F)(F)F)n1`, at Protein RecA, the concentration for a half-maximal effect (EC50) – broadly, the concentration giving half of the maximal effect – was 4.56 µM (active).
In the case of `O=C(O)c1ccc(NC2=C(Cl)C(=O)c3ccccc3C2=O)cc1`, the EC50 at Protein RecA is 1.22 µM (active).
As for `O=C(O)c1ccc2c3c(ncnc13)-c1ccccc1C2=O`, at Protein RecA, the EC50 was 1.77 µM (active).
As for `Cc1ccc2nccc(NC(=O)Nc3cccc(C(F)(F)F)n3)c2c1`, the Ki (as a rule, a dissociation constant, usually derived from enzyme kinetics or from competition with a known ligand) is > 3.16 µM (inactive) in assay [1]; > 10 µM (inactive) in [2]; 1.26 µM (active) in [3]; > 1.26 µM (inactive) in assay [4]; > 3.16 µM (inactive) in assay [5]; > 3.98 µM (inactive) in assay [6]. The Ki was > 5.01 µM (inactive) in assay [7]; 0.316 µM (active) in [8]; > 7.94 µM (inactive) in [9]; > 2.51 µM (inactive) in assay [10]; > 7.94 µM (inactive) in [11]; > 7.94 µM (inactive) in [12]. The inhibition constant (Ki) in assay [13] was 0.1 µM (active).
On to `Cc1nn(C)c2sc3c(=O)[nH]cnc3c12`, for which the Ki in assay [1] was 100 µM (active); in assay [2], > 100 µM (inactive); in assay [3], 39.8 µM (active); in assay [4], 50.1 µM (active); in assay [5], 31.6 µM (active); in assay [6], > 50.1 µM (inactive). Besides, the Ki in assay [7] was 50.1 µM (active); in [8], 2.51 µM (active); in assay [9] it was > 79.4 µM (inactive); in assay [10] it was 12.6 µM (active); in assay [11] it was > 79.4 µM (inactive); in assay [12] it was 50.1 µM (active). For the same compound, the inhibition constant (Ki) in [13] was 3.16 µM (active).
As for `Cc1c(/N=C2\C=CC(=O)c3ccccc32)c(=O)n(-c2ccccc2)n1C`, the EC50 on Protein RecA is 0.768 µM (active).
Regarding `COc1cc2c(cc1F)C(c1ccccc1Cl)=Nc1c(n[nH]c1C)N2` [RG-1530], the Ki was 2 µM (active) in assay [1]; > 10 µM (inactive) in assay [2]; > 3.98 µM (inactive) in assay [3]; > 1.26 µM (inactive) in assay [4]; > 5.01 µM (inactive) in assay [5]; 0.0501 µM (active) in assay [6]. Also, the Ki is > 5.01 µM (inactive) in [7]; > 7.94 µM (inactive) in assay [8]; 0.501 µM (active) in assay [9]; 0.0316 µM (active) in assay [10]; > 7.94 µM (inactive) in assay [11]; > 3.16 µM (inactive) in [12]. Moreover, the Ki in assay [13] is 1 µM (active).
